# Where two headings read alike, the source gives them in different places.
# Legend:
# Assay in all cases: selectivity profiling in a panel of 340 wild-type kinases (Reaction Biology Europe)
# Format in all cases: binding
# [1] = molecular target: T1, 340 wild-type kinases (Homo sapiens, UniProt Q07002)
# T1 construct: purchased Reaction Biology Europe
# [2] = molecular target: T2, 340 wild-type kinases (Homo sapiens, UniProt Q15831)
# T2 construct: purchased Reaction Biology Europe
# T2 sequence (Q15831 1-433): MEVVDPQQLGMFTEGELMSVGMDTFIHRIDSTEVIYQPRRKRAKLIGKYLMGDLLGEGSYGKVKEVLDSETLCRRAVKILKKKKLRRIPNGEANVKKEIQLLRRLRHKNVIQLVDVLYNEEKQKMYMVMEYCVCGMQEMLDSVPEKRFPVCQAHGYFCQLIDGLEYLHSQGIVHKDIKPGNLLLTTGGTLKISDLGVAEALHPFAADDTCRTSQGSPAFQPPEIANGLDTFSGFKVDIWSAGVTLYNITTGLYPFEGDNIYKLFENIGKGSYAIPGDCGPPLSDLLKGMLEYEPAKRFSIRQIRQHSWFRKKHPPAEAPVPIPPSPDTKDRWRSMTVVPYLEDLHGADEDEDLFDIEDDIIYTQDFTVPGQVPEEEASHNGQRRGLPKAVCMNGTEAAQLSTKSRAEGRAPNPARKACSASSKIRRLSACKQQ
# [3] = molecular target: T3, 340 wild-type kinases (Homo sapiens, UniProt Q9HC98)
# T3 construct: purchased Reaction Biology Europe
# [4] = molecular target: T4, 340 wild-type kinases (Homo sapiens, UniProt Q9UL54)
# T4 construct: purchased Reaction Biology Europe
# T4 sequence (Q9UL54 1-1235): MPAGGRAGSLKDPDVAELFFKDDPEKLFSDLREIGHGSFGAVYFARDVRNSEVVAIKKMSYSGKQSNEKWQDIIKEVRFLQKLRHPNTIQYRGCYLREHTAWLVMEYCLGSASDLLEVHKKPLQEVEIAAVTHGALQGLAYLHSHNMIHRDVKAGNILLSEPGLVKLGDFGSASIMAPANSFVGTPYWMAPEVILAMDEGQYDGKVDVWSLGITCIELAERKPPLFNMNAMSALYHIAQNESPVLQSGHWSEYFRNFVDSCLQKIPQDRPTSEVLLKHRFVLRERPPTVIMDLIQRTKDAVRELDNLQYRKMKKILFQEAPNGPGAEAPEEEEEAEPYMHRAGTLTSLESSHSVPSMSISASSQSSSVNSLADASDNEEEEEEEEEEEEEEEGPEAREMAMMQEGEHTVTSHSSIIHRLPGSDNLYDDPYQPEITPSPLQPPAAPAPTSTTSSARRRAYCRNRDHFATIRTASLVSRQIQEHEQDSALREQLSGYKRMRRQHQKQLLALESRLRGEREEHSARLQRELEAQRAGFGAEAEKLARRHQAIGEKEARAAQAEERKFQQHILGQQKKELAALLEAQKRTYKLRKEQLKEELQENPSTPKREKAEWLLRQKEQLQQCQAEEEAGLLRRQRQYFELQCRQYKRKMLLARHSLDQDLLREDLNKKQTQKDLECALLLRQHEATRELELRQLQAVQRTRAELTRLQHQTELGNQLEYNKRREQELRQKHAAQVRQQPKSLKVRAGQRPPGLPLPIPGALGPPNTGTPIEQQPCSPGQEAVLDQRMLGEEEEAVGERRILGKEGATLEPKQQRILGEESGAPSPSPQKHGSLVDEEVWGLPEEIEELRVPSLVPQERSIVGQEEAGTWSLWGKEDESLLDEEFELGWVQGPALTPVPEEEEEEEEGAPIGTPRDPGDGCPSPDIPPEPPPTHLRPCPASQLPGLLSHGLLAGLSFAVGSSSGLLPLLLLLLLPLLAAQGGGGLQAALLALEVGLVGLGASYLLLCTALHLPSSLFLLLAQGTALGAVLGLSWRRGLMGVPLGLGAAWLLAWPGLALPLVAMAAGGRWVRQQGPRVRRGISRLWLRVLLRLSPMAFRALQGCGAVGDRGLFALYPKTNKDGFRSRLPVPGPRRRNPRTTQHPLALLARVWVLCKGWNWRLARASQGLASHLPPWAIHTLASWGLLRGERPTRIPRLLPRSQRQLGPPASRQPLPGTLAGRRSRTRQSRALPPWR
# [5] = molecular target: T5, 340 wild-type kinases (Homo sapiens, UniProt Q06187)
# T5 construct: purchased Reaction Biology Europe
# [6] = molecular target: T6, 340 wild-type kinases (Homo sapiens, UniProt O75914)
# T6 construct: purchased Reaction Biology Europe
# [7] = molecular target: T7, 340 wild-type kinases (Homo sapiens, UniProt P04626)
# T7 construct: purchased Reaction Biology Europe
# [8] = molecular target: T8, 340 wild-type kinases (Homo sapiens, UniProt Q13627)
# T8 construct: purchased Reaction Biology Europe
# [9] = molecular target: T9, 340 wild-type kinases (Homo sapiens, UniProt P04629)
# T9 construct: purchased Reaction Biology Europe
# [10] = molecular target: T10, 340 wild-type kinases (Homo sapiens, UniProt Q9HBH9)
# T10 construct: purchased Reaction Biology Europe
# T10 sequence (Q9HBH9 whole entry): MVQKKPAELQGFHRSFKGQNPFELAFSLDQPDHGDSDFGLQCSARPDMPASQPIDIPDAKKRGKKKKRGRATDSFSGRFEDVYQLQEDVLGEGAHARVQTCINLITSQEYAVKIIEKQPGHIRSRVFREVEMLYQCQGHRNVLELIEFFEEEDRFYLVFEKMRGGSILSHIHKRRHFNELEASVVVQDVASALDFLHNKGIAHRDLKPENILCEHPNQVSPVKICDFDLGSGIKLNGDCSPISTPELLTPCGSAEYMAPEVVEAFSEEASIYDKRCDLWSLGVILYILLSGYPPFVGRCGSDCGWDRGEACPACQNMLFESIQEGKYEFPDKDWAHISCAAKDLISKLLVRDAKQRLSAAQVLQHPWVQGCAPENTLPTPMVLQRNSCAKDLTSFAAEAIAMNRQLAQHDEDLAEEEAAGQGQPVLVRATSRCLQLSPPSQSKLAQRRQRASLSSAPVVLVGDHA
# T5 sequence (Q06187 whole entry): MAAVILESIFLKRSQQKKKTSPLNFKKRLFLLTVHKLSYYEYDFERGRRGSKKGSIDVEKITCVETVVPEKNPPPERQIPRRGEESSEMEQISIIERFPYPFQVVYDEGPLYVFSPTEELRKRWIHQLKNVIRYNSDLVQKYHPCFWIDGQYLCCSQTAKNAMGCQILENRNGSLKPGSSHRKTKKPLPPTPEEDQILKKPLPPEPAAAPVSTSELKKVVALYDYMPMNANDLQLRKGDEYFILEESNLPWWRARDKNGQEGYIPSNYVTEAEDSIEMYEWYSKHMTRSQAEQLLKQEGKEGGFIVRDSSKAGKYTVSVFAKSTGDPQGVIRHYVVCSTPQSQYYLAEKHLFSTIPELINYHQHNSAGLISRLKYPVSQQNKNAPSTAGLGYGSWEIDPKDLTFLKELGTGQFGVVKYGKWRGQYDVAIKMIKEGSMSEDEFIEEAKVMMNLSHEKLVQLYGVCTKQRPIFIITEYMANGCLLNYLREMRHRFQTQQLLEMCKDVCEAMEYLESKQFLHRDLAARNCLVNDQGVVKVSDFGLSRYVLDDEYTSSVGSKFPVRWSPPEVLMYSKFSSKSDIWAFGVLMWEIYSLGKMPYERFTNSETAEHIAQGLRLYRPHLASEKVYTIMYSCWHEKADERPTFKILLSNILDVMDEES
# T7 sequence (P04626 23-1255): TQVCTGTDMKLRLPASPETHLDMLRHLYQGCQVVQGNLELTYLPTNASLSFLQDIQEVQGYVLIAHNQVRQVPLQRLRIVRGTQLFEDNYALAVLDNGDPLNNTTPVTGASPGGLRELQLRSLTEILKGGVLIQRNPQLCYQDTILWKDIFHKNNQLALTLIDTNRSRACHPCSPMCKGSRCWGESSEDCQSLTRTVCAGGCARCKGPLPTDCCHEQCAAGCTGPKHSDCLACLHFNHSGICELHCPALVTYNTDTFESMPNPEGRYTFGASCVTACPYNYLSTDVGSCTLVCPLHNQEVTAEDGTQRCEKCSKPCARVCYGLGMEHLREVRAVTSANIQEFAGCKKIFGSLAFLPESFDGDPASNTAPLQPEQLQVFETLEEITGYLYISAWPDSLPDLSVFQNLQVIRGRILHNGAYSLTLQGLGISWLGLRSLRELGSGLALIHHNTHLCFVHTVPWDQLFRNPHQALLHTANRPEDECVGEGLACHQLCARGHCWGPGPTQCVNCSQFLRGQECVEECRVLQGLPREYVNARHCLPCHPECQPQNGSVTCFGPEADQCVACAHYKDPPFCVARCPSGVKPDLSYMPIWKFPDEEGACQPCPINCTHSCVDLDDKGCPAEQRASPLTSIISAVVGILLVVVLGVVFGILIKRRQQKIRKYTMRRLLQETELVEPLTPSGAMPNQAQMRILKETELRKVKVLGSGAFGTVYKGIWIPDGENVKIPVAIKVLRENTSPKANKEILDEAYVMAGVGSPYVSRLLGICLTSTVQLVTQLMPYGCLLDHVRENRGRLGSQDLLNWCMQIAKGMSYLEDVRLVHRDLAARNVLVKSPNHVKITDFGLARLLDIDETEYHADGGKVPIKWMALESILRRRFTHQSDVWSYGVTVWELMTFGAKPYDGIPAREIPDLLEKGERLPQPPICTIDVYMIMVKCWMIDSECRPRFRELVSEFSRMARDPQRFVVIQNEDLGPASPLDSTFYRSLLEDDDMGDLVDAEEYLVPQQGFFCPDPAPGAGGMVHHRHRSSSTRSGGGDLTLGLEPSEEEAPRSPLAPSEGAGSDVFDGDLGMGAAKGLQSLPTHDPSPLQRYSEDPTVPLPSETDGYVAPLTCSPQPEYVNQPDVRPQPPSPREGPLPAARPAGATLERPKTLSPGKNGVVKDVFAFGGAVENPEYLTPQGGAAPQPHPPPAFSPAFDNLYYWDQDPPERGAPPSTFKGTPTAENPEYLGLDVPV
# T1 sequence (Q07002 whole entry): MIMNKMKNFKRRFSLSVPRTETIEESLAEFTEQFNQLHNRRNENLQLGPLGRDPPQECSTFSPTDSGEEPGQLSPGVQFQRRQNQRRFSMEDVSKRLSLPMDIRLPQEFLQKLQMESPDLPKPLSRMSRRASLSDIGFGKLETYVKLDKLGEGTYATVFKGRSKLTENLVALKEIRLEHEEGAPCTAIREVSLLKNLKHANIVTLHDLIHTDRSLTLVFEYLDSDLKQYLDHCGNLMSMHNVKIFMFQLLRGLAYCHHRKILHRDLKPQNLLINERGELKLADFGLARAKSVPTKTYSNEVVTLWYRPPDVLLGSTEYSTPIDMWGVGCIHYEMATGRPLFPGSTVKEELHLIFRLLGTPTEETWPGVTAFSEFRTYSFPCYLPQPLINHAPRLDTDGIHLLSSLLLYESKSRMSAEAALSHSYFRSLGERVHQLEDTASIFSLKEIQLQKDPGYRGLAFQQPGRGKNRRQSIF
# T6 sequence (O75914 whole entry): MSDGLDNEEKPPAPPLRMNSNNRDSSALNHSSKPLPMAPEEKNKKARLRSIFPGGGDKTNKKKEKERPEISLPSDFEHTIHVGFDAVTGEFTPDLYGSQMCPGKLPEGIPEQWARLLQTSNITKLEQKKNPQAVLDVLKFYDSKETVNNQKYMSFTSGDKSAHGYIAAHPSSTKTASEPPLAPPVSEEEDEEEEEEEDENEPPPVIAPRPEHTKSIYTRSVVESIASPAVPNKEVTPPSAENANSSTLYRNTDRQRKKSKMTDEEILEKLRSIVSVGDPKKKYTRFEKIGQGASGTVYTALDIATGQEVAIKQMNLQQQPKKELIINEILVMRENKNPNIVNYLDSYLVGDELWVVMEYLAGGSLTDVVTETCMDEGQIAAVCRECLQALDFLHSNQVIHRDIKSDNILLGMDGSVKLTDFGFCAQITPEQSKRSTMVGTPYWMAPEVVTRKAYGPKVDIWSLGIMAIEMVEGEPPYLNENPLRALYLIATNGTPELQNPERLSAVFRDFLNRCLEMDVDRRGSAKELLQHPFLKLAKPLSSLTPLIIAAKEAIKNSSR
# T3 sequence (Q9HC98 whole entry): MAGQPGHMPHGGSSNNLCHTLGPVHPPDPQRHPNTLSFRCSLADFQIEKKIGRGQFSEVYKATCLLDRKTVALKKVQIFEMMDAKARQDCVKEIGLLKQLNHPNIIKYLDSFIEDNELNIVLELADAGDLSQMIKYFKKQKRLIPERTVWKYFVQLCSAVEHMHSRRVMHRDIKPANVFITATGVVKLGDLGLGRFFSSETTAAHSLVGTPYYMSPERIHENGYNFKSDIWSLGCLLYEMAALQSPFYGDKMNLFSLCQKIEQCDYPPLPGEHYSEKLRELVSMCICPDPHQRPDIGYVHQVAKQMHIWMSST
# T9 sequence (P04629 33-796): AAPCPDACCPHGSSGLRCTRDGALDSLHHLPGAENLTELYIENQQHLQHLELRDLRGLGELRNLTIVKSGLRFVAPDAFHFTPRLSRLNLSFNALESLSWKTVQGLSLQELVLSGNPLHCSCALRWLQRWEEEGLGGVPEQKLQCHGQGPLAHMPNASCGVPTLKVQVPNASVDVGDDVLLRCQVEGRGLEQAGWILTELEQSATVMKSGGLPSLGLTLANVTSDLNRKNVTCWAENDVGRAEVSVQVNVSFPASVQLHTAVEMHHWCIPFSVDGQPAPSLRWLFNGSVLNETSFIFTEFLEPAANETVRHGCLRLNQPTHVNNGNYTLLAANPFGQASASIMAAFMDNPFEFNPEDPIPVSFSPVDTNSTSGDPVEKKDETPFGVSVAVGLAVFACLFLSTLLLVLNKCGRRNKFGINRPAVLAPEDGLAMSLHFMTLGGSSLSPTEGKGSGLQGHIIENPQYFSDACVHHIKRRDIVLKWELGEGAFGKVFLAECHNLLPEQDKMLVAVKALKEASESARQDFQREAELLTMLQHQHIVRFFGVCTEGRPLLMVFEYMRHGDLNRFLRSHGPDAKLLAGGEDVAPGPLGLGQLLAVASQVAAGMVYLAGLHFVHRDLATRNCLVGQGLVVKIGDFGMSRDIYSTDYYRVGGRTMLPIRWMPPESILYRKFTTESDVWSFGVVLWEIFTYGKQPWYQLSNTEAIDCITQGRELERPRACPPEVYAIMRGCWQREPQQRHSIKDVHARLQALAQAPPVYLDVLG
smiles,measurement,setting,value
CNC(=O)c1ccc2c(c1)C(=O)c1ccc(Nc3ccc(F)c(NC(=O)C4CC4)c3)cc1CC2 [Compound 2015],remaining activity at 0.2 µM,"[1]; 0.2 µM 2015, read-out: CDK18/CycY residual activity",102%
same,remaining activity at 1 µM,"[1]; 1 µM 2015, read-out: CDK18/CycY residual activity",92.8%
same,remaining activity at 0.2 µM,"[1]; CDK18/CycY, 0.2 µM, read-out: residual activity",102%
same,remaining activity at 1 µM,"[1]; CDK18/CycY, 1 µM, read-out: residual activity",92.8%
same,remaining activity at 0.2 µM,"[2]; 0.2 µM 2015, read-out: LKB1/MO25a/STRADa residual activity",115%
same,remaining activity at 1 µM,"[2]; 1 µM 2015, read-out: LKB1/MO25a/STRADa residual activity",91.6%
same,remaining activity at 0.2 µM,"[2]; LKB1/MO25a/STRADa, 0.2 µM, read-out: residual activity",115%
same,remaining activity at 1 µM,"[2]; LKB1/MO25a/STRADa, 1 µM, read-out: residual activity",91.6%
same,remaining activity at 0.2 µM,"[3]; 0.2 µM 2015, read-out: NEK6 residual activity",95.6%
same,remaining activity at 1 µM,"[3]; 1 µM 2015, read-out: NEK6 residual activity",99.3%
same,remaining activity at 0.2 µM,"[3]; NEK6, 0.2 µM, read-out: residual activity",95.6%
same,remaining activity at 1 µM,"[3]; NEK6, 1 µM, read-out: residual activity",99.3%
same,remaining activity at 0.2 µM,"[4]; 0.2 µM 2015, read-out: TAOK2 residual activity",102%
same,remaining activity at 1 µM,"[4]; 1 µM 2015, read-out: TAOK2 residual activity",103%
same,remaining activity at 0.2 µM,"[4]; TAOK2, 0.2 µM, read-out: residual activity",102%
same,remaining activity at 1 µM,"[4]; TAOK2, 1 µM, read-out: residual activity",103%
same,remaining activity at 0.2 µM,"[5]; 0.2 µM 2015, read-out: BTK residual activity",116%
same,remaining activity at 1 µM,"[5]; 1 µM 2015, read-out: BTK residual activity",106%
same,remaining activity at 0.2 µM,"[5]; BTK, 0.2 µM, read-out: residual activity",116%
same,remaining activity at 1 µM,"[5]; BTK, 1 µM, read-out: residual activity",106%
same,remaining activity at 0.2 µM,"[6]; 0.2 µM 2015, read-out: PAK3 residual activity",97.6%
same,remaining activity at 1 µM,"[6]; 1 µM 2015, read-out: PAK3 residual activity",96.3%
same,remaining activity at 0.2 µM,"[6]; PAK3, 0.2 µM, read-out: residual activity",97.6%
same,remaining activity at 1 µM,"[6]; PAK3, 1 µM, read-out: residual activity",96.3%
same,remaining activity at 0.2 µM,"[7]; 0.2 µM 2015, read-out: ERBB2 residual activity",105%
same,remaining activity at 1 µM,"[7]; 1 µM 2015, read-out: ERBB2 residual activity",102%
same,remaining activity at 0.2 µM,"[7]; ERBB2, 0.2 µM, read-out: residual activity",105%
same,remaining activity at 1 µM,"[7]; ERBB2, 1 µM, read-out: residual activity",102%
same,remaining activity at 0.2 µM,"[8]; 0.2 µM 2015, read-out: DYRK1A residual activity",86.7%
same,remaining activity at 1 µM,"[8]; 1 µM 2015, read-out: DYRK1A residual activity",90.3%
same,remaining activity at 0.2 µM,"[8]; DYRK1A, 0.2 µM, read-out: residual activity",86.8%
same,remaining activity at 1 µM,"[8]; DYRK1A, 1 µM, read-out: residual activity",90.3%
same,remaining activity at 0.2 µM,"[9]; 0.2 µM 2015, read-out: TRKA residual activity",109%
same,remaining activity at 1 µM,"[9]; 1 µM 2015, read-out: TRKA residual activity",96.5%
same,remaining activity at 0.2 µM,"[9]; TRKA, 0.2 µM, read-out: residual activity",109%
same,remaining activity at 1 µM,"[9]; TRKA, 1 µM, read-out: residual activity",96.5%
same,remaining activity at 0.2 µM,"[10]; 0.2 µM 2015, read-out: MKNK2 residual activity",105%
same,remaining activity at 1 µM,"[10]; 1 µM 2015, read-out: MKNK2 residual activity",102%
same,remaining activity at 0.2 µM,"[10]; MKNK2, 0.2 µM, read-out: residual activity",105%
same,remaining activity at 1 µM,"[10]; MKNK2, 1 µM, read-out: residual activity",102%

# — article PMC11864979, “First-in-class ultralong-target-residence-time p38α inhibitors as a mitosis-targeted therapy for colorectal cancer” (Nature Cancer, 2025)
